Assays:
IL-17AF = test: TH17 cytokine inhibition measured by ELISA (IL-17AF); type: cell-based; conditions: 120 h; human TH17 cells, 5 days differentiation, ELISA of supernatants, 0.1% DMSO
Method: (§1) Peripheral blood mononuclear cells (PBMCs) were sourced from freshly prepared leukocyte enriched plasma (buffy coat) from healthy volunteers from which PBMCs were isolated by density gradient centrifugation using Ficoll-Paque™ PLUS (GE Healthcare). Naïve CD4+ T cells were isolated using the Naïve CD4+ T cell Isolation Kit II (Miltenyi Biotec) as per manufacturer's instructions. CD4+ T cells were plated at 5×10^4 cells/well in 96 well plates pre-coated with immobilized human (h)-αCD3 antibody (eBioscience) then differentiated to TH17 cells using h-αCD28, h-αIFN-γ, h-αIL-4, h-IL-6, h-IL-23, h-IL-1β, h-TGF-β1 (eBioscience) and maintained in a cell culture incubator at 37° C. with 5% CO2 in TexMACS Medium (Miltenyi Biotec) supplemented with 1% Penicillin/Streptomycin (Lonza) over 5 days.
(§2) Human CD4+ T cells were differentiated to TH17 cells as described in the presence or absence of various concentrations of compounds in a final concentration of 0.1% DMSO in TexMACS medium. Supernatants were collected and stored at −20° C. until they were to be assayed for IL-17A, IL-17F, IL-17AF, IL-21 and/or IL-22 levels as determined by Ready-Set-Go ELISA kits (eBioscience) as per manufacturer's instructions. Endpoint absorbance was read at 450 nm and 570 nm according to manufacturer's instructions (eBioscience) using a microplate reader (Perkin Elmer). The percentage of cytokine inhibition was calculated with reference to DMSO treated cells and the IC50s were determined by GraphPad Prism software and presented in the table below.

IL-21 = test: TH17 cytokine inhibition measured by ELISA (IL-21); type: cell-based; conditions: 120 h; human TH17 cells, 5 days differentiation, ELISA of supernatants, 0.1% DMSO
Method: as §1, §2

[1] = TH17 cell viability (Prestoblue); type: cell-based; conditions: human; 1 μM compound, after 5 days, percentage of DMSO treated cells
Method: as §1
Cells were assayed for viability in the presence or absence of 1 μM compound using Prestoblue® Cell Viability Reagent (Life Technologies) as per manufacturer's instructions after 30 minutes incubation of TH17 cells with reagent. Absorbance was measured at 570 nm and 600 nm using a microplate reader (Perkin Elmer) and data were analyzed as per manufacturer's instructions. Cell viability was determined after 5 days and expressed as a percentage of DMSO treated cells.

IL-17A = test: Real-Time qRT-PCR gene expression in TH17 cells (IL-17A); type: cell-based, human; parameters: key: A: No change in gene expression observed relative to DMSO treated Th17 cells; B: Decreased gene expression observed relative to DMSO treated Th17 cells; C: Increased gene expression observed relative to DMSO treated Th17 cells; conditions: normalized to six reference genes
Method: as §1
(§3) RNA was isolated from TH17 cells and cDNA was synthesized using the Verso cDNA kit (Thermo Scientific) as per manufacturer's instructions. IL-17A, IL-17F, IL-21, IL-22, G-CSF, IL-23R and FOXP3 gene expression were determined for compound treated and untreated TH17 cell samples using Solaris qPCR Gene expression assays (Thermo Scientific) with an iCycler iQ Real-Time PCR Detection System (Bio-Rad). Individual gene expression was normalized to a panel of six reference genes (ACTB, TBP, HPRT1, PGK1, TFRC and PPIA) (Thermo Scientific) and analyzed by REST 2009 (Qiagen) in accordance to MIQE guidelines (Bustin et al. (2009) Clin. Chem, 55:611-622). The effects of compounds on TH17 cytokine gene expression are presented as fold change in mRNA levels of compound treated TH17 cells relative to DMSO treated cells in the table below.

IL-22 = test: Real-Time qRT-PCR gene expression in TH17 cells (IL-22); type: cell-based, human; parameters: key: A: No change in gene expression observed relative to DMSO treated Th17 cells; B: Decreased gene expression observed relative to DMSO treated Th17 cells; C: Increased gene expression observed relative to DMSO treated Th17 cells; conditions: normalized to six reference genes
Method: as §1, §3

Structure (SMILES) | IC50 (IL-17AF) [µM] | IC50 (IL-21) [µM] | viability at 5 days, 1 µM [1] [%] | Fold change in mRNA levels of compound treated TH17 cells relative to DMSO treated cells, IL-17A (IL-17A) | Fold change in mRNA levels of compound treated TH17 cells relative to DMSO treated cells, IL-22 (IL-22)
Cc1n[nH]c(-c2ccc3c(c2)CCC(=O)N3Cc2ccc(C(O)(C(F)(F)F)C(F)(F)F)cc2)n1 [Example 6, 1-(4-(1,1,1,3,3,3-hexafluoro-2-hydroxypropan-2-yl)benzyl)-6-(3-methyl-1H-1,2,4-triazol-5-yl)-3,4-dihydroquinolin-2(1H)-one] |  |  | > 80 | B | B
Cc1cc(-c2ccc3c(c2)CCC(=O)N3Cc2ccc(C(O)(C(F)(F)F)C(F)(F)F)cc2)[nH]n1 [Example 4, 1-(4-(1,1,1,3,3,3-hexafluoro-2-hydroxypropan-2-yl)benzyl)-6-(3-methyl-1H-pyrazol-5-yl)-3,4-dihydroquinolin-2(1H)-one] |  |  | > 80 | B | B

More lines, main results first:

IC50 (IL-17AF) [µM] | IC50 (IL-21) [µM] | Structure (SMILES) | viability at 5 days, 1 µM [1] [%] | Fold change in mRNA levels of compound treated TH17 cells relative to DMSO treated cells, IL-17A (IL-17A) | Fold change in mRNA levels of compound treated TH17 cells relative to DMSO treated cells, IL-22 (IL-22)
< 10 | < 10 | Cc1n[nH]c(-c2ccc3c(c2)CCCN3Cc2ccc(C(O)(C(F)(F)F)C(F)(F)F)cc2)n1 [Example 3, 1,1,1,3,3,3-hexafluoro-2-(4-((6-(3-methyl-1H-1,2,4-triazol-5-yl)-3,4-dihydroquinolin-1(2H)-yl)methyl)phenyl)propan-2-ol] | > 80 | B | B
< 10 | < 10 | Cc1cc(-c2ccc3c(c2)CCCN3Cc2ccc(C(O)(C(F)(F)F)C(F)(F)F)cc2)[nH]n1 [Example 1, 1,1,1,3,3,3-hexafluoro-2-(4-((6-(3-methyl-1H-pyrazol-5-yl)-3,4-dihydroquinolin-1(2H)-yl)methyl)phenyl)propan-2-ol] | > 80 | A | B
< 10 | < 10 | O=C1CCc2cc(-c3cn[nH]c3)ccc2N1Cc1ccc(C(O)(C(F)(F)F)C(F)(F)F)cc1 [Example 5, 1-(4-(1,1,1,3,3,3-hexafluoro-2-hydroxypropan-2-yl)benzyl)-6-(1H-pyrazol-4-yl)-3,4-dihydroquinolin-2(1H)-one] | < 80 | A | A
< 10 | < 10 | OC(c1ccc(CN2CCCc3cc(-c4cn[nH]c4)ccc32)cc1)(C(F)(F)F)C(F)(F)F [Example 2, 2-(4-((6-(1H-pyrazol-4-yl)-3,4-dihydroquinolin-1(2H)-yl)methyl)phenyl)-1,1,1,3,3,3-hexafluoropropan-2-ol] | > 80 | B | B

From patent US9447069B2, “ROR modulators and their uses” (INNOV17 LLC, priority 2012, dated 2016)
